Test results published in EPA's ToxRefDB 2.

Assays:
[1] = system: rabbit; details: Prenatal developmental toxicity study, himalayan, Oral, Gavage/Intubation, dose end: 19 GD
[2] = system: dog; details: Chronic toxicity, beagle, Oral, Gavage/Intubation, dose end: 1 year, group: systemic
[3] = system: rabbit; details: Prenatal developmental toxicity study, himalayan, Oral, Gavage/Intubation, dose end: 19 GD; remark: listed apart in the source
[4] = system: rat; details: Fertility (Segment I); sprague dawley; Oral; Gavage/Intubation; dose end: 7 GD; group: parental; systemic / in life observation / body weight / body weight gain + systemic / in life observation / clinical signs / motor activity + …
[5] = system: dog; details: Chronic toxicity, beagle, Oral, Gavage/Intubation, dose end: 6 month, group: systemic
[6] = system: rat; details: Prenatal developmental toxicity study, sprague dawley, Oral, Gavage/Intubation, dose end: 17 GD
[7] = system: rat; details: Chronic toxicity, sprague dawley, Oral, Gavage/Intubation, dose end: 6 month, group: systemic
[8] = system: dog; details: Sub-acute repeat dose toxicity, beagle, Oral, Capsule, dose end: 4 week, group: systemic
[9] = system: rat; details: Prenatal developmental toxicity study, sprague dawley, Oral, Gavage/Intubation, dose end: 17 GD; remark: listed apart in the source
[10] = system: rat; details: Sub-acute repeat dose toxicity; sprague dawley; Oral; Gavage/Intubation; dose end: 28 day; group: systemic; systemic / in life observation / body weight / body weight gain + systemic / in life observation / clinical signs / alopecia + systemic / in…
[11] = group: developmental, systemic / in life observation / body weight / fetal weight
[12] = group: maternal, systemic / in life observation / body weight / body weight + systemic / in life observation / body weight / body weight gain + systemic / in…
[13] = systemic / in life observation / body weight / body weight gain + systemic / pathology microscopic / eye / opacity
[14] = systemic / in life observation / clinical signs / convulsions + systemic / in life observation / clinical signs / general pallor + systemic…
[15] = group: maternal, systemic / in life observation / food consumption / food consumption
[16] = group: maternal, systemic / in life observation / food consumption / food consumption + systemic / in life observation / body weight / body weight + systemic…
[17] = systemic / in life observation / body weight / body weight gain + systemic / in life observation / clinical signs / vomitting
[18] = systemic / in life observation / body weight / body weight gain + systemic / in life observation / clinical signs / vomitting + systemic / …
[19] = group: maternal, reproductive / reproductive performance / postimplantation loss / postimplantation loss + reproductive / reproductive performance / …
[20] = systemic / in life observation / clinical signs / convulsions + systemic / in life observation / mortality / mortality + systemic / …
[21] = systemic / pathology microscopic / adrenal gland / dilatation + systemic / pathology microscopic / thyroid gland / hyperplasia + systemic / …
[22] = systemic / in life observation / body weight / body weight gain + systemic / in life observation / food consumption / food consumption + …
[23] = systemic / pathology microscopic / larynx / inflammation
[24] = group: developmental, developmental / developmental malformation / bone / [other] + developmental / developmental malformation / bone / absent + developmental / …
[25] = group: maternal, systemic / in life observation / body weight / body weight gain + systemic / in life observation / food consumption / food consumption + …

## O=C(Oc1ccc(Br)cc1)N1CCN2CCC1CC2
[1]; [11]
  LEL: 30 mg/kg/day
  LOAEL: > 30 mg/kg/day
  NEL: 10 mg/kg/day
  NOAEL: ≥ 30 mg/kg/day
[1]; [12]
  LEL: 10 mg/kg/day
  LOAEL: > 30 mg/kg/day
  NEL: 3 mg/kg/day
  NOAEL: ≥ 30 mg/kg/day
[2]; [13]
  LEL: 5 mg/kg/day
  NEL: < 5 mg/kg/day
[2]; [14]
  LOAEL: > 12.5 mg/kg/day
  NOAEL: ≥ 12.5 mg/kg/day
[3]; [11]
  LEL: 24 mg/kg/day
  LOAEL: > 24 mg/kg/day
  NEL: 8 mg/kg/day
  NOAEL: ≥ 24 mg/kg/day
[3]; [15]
  LEL: 3 mg/kg/day
  NEL: < 3 mg/kg/day
[3]; [16]
  LOAEL: > 24 mg/kg/day
  NOAEL: ≥ 24 mg/kg/day
[4]
  LEL: 50 mg/kg/day
  LOAEL: 50 mg/kg/day
  NEL: 20 mg/kg/day
  NOAEL: 20 mg/kg/day
[5]; [17]
  LEL: 1.5 mg/kg/day
  NEL: < 1.5 mg/kg/day
[5]; [18]
  LOAEL: > 15 mg/kg/day
  NOAEL: ≥ 15 mg/kg/day
[6]; [11]
  LEL: 75 mg/kg/day
  LOAEL: > 75 mg/kg/day
  NEL: 25 mg/kg/day
  NOAEL: ≥ 75 mg/kg/day
[6]; [19]
  LOAEL: > 75 mg/kg/day
  NEL: 5 mg/kg/day
  NOAEL: ≥ 75 mg/kg/day
[6]; group: maternal, reproductive / reproductive performance / preimplantation loss / preimplantation loss + systemic / in life observation / body weight / body …
  LEL: 25 mg/kg/day
[7]; [20]
  LOAEL: 75 mg/kg/day
  NOAEL: 25 mg/kg/day
[7]; [21]
  LEL: 5 mg/kg/day
  NEL: < 5 mg/kg/day
[8]; [22]
  LOAEL: > 30 mg/kg/day
  NOAEL: ≥ 30 mg/kg/day
[8]; [23]
  LEL: 3 mg/kg/day
  NEL: < 3 mg/kg/day
[9]; [24]
  LOAEL: 50 mg/kg/day
  NEL: 5 mg/kg/day
  NOAEL: 20 mg/kg/day
[9]; group: developmental, developmental / developmental malformation / bone / incomplete ossification
  LEL: 20 mg/kg/day
[9]; [25]
  LOAEL: 50 mg/kg/day
  NEL: 5 mg/kg/day
  NOAEL: 20 mg/kg/day
[9]; group: maternal, systemic / organ weight / uterus / nos
  LEL: 20 mg/kg/day
[10]
  LEL: 5 mg/kg/day
  LOAEL: 25 mg/kg/day
  NEL: < 5 mg/kg/day
  NOAEL: 5 mg/kg/day
